Source: the OligoGym collection
“And” between values parts separate entries of the source, which are not always exact repeats. Equal entries are not always repeated. After the bases stand the sugars from the 5' end (letter, count) and the backbone: PS all phosphorothioate, else s phosphorothioate and o phosphodiester by linkage. Methylation of C is not given here. e = 2'-O-(2-methoxyethyl) (MOE); k = constrained ethyl (cEt); d = 2'-deoxy (DNA)

Target: IRF5
Details: ASO

Sequence | target mRNA inhibition (KARPAS-229, 4 µM) | other results
ATTTGCCTTCTGCAGG (sugars k3 d10 k3, PS) | 0% | –
ATTTTGTGACTGTATT (sugars k3 d10 k3, PS) | 4% | –
CAATTTTGCATTCCAT (sugars kkddddddddkekekk, PS) | 32% | –
CACATCTCCACATCAG (sugars kddddddddddkekek, PS) | 15% | –
CACATCTCCACATCAG (sugars kkdddddddddkekek, PS) | 22% | –
CACCACTGTGTACCCC (sugars kdddddddddkekeke, PS) | 0% | –
CACTGACACAGGCGGA (sugars k3 d10 k3, PS) | 1% and 0% | –
CACTGACACAGGCGGA (sugars kekdddddddddeekk, PS) | 0% | –
CACTGACACAGGCGGA (sugars kkddddddddkekekk, PS) | 0% | –
CACTTGATTCCAATTT (sugars k3 d10 k3, PS) | 36% | –
CAGGTTCTTGGACTCT (sugars kkddddddddkekekk, PS) | 0% | –
CAGGTTCTTGGACTCT (sugars kkkddddddddkekek, PS) | 0% | –
CATCTCCACATCAGTC (sugars kdddddddddkekeke, PS) | 32% | –
CATTCCATATACACAC (sugars kddddddddddkekek, PS) | 31% | –
CATTCCATATACACAC (sugars kkdddddddddkdkdk, PS) | 25% | –
CCAATGCAACATCCAT (sugars k2 d9 e3 k2, PS) | 0% | –
CCAATGCAACATCCAT (sugars k3 d10 k3, PS) | 0% | –
CCAATTTTGCATTCCA (sugars k2 d8 e4 k2, PS) | 48% | –
CCAATTTTGCATTCCA (sugars k3 d10 k3, PS) | 78% and 83% | target mRNA inhibition (KARPAS-229, 0.44444 µM): 51%; target mRNA inhibition (KARPAS-229, 1.33333 µM): 74%; target mRNA inhibition (KARPAS-229, 12 µM): 89%

Sequence | target mRNA inhibition (KARPAS-229, 4 µM) | other results
CCACTGTGTACCCCAT (sugars kkddddddddkekekk, PS) | 0% | –
CCATTCTATGCCTTTT (sugars kkddddddddddkeke, PS) | 61% and 62% | target mRNA inhibition (KARPAS-229, 0.44444 µM): 37%; target mRNA inhibition (KARPAS-229, 1.33333 µM): 45%; target mRNA inhibition (KARPAS-229, 12 µM): 73%
CCATTCTATGCCTTTT (sugars kkdddddddddkdkdk, PS) | 46% | –
CCATTCTATGCCTTTT (sugars kkddddddddkekekk, PS) | 3% | –
CCATTCTATGCCTTTT (sugars kkkddddddddkekek, PS) | 44% | –
CCCAATGCAACATCCA (sugars k3 d10 k3, PS) | 12% | –
CCCAATGCAACATCCA (sugars kkkddddddddkdkdk, PS) | 0% | –
CCTTCTGCAGGGAGTC (sugars k3 d9 k3 e1, PS) | 0% | –
CCTTCTGCAGGGAGTC (sugars k3 d10 k3, PS) | 0% | –
CCTTCTGCAGGGAGTC (sugars kkddddddddddkeke, PS) | 0% | –
CGGTCTTTGAGGTCTG (sugars kddddddddddkekek, PS) | 68% | –
CTAGTGTCATGGAATT (sugars k3 d10 k3, PS) | 34% | –
CTGACACAGGCGGATG (sugars kdddddddddkekeke, PS) | 0% | –
CTGACACAGGCGGATG (sugars kkddddddddkekekk, PS) | 0% | –
CTGATATGATACCTAA (sugars k3 d1 k1 d8 k3, PS) | – | target mRNA inhibition (A-431, 0.00412 µM): 20%; target mRNA inhibition (A-431, 0.01225 µM): 29%; target mRNA inhibition (A-431, 0.03704 µM): 38%; target mRNA inhibition (A-431, 0.11111 µM): 64%; target mRNA inhibition (A-431, 0.33333 µM): 83%; target mRNA inhibition (A-431, 1 µM): 83%
CTGTCACATCTCCACA (sugars kkddddddddkekekk, PS) | 0% | –
CTTCTGCAGGGAGTCA (sugars k3 d9 k3 e1, PS) | 0% | –
CTTCTGCAGGGAGTCA (sugars kkdddddddddkdkdk, PS) | 0% | –
CTTCTGCAGGGAGTCA (sugars kkkddddddddkekek, PS) | 0% | –
